Results published in patent US20160108414A1, “GROWTH-RELATED ENOX PROTEINS FROM PLANTS WITH YIELD ENHANCEMENT POTENTIAL, SEQUENCES AND METHODS” (Mor-NuCo Enterprises, Inc., priority 2013, published 2016).
Values joined by “and” are separate entries in the source; they are usually repeats but may differ in a detail not shown here. Identical values can stand only once.

Experiments:
recombinant human ENOX2 = molecular target: T1, recombinant human ENOX2 (Homo sapiens, UniProt Q16206); test: Inhibition of recombinant human ENOX2 assayed in parallel; type: biochemical; details: read-out: inhibition of recombinant human ENOX2
T1 sequence (Q16206 1-610): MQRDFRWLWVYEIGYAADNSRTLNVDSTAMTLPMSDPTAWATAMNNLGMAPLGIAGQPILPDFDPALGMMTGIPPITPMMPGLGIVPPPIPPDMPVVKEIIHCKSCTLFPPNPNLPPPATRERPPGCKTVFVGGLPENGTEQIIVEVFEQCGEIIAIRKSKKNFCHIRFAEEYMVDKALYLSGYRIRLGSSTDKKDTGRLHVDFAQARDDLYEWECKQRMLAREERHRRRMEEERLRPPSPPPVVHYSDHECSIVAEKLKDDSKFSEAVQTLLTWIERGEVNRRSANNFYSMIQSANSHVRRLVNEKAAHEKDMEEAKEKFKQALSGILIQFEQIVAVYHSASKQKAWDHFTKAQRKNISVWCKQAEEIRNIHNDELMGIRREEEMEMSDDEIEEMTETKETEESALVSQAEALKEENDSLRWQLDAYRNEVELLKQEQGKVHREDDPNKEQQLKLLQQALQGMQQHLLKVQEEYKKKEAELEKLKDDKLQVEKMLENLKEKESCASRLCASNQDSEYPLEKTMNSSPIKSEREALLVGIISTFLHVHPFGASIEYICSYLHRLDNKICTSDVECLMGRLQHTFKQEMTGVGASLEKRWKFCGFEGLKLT
From the text: Simalikalactone D is a general ENOX1 inhibitor.

[1] = tested on: recombinant Arabidopsis ENOX1; test: NADH oxidase activity of IEF-purified recombinant Arabidopsis ENOX1; type: biochemical; details: recombinant protein expressed in bacteria, FIG. 14
Method: Cells were centrifuged at 5,000 g for 6 min. Pellets were then resuspended in 20 mM Tris-HCl, pH 8.0, containing 0.5 mM PMSF, 1 mM benzamidine and 1 mM 6-aminocaproic and lysed by three passages through a French pressure cell (SLM Aminco) at 20,000 psi. Expression of the recombinant Arabidopsis ENOX1 of about 14 kDa was confirmed by SDS-PAGE with silver staining. Transformed cells were stored at −80° C. in a standard glycerol stock solution. The Arabidopsis ENOX1 proteins were further purified on Criterion IEF gels (Bio-Rad, Hercules, Calif.). The IEF gel was cut into seven equal segments. The pH represented by each slice was based on IEF standards (Bio-Rad). The slices were soaked in 15 mM Tris-Mes buffer, pH 7, at 4° C. for overnight with shaking. The gel-free extracts were assayed for ENOX1 activity.
(§1) Oxidation of NADH was determined spectrophotometrically from the disappearance of NADH measured at 340 nm in a reaction mixture containing 25 mM Tris-MES (pH 7.2), 100 μM GSH, 1 mM KCN to inhibit mitochondrial oxidase activity, 150 μM NADH and the enzyme at 37° C. with temperature control (±0.5° C.) and stirring. Prior to assay, 1 μM reduced glutathione was added to reduce the protein in the presence of substrate. After 10 min, 0.03% hydrogen peroxide was added to reoxidize the protein under renaturing conditions and in the presence of substrate to start the reaction. Activities were measured using paired Hitachi U3210 or paired SLM Aminco 2000 spectrophotometers both with continuous recording. Assays were run for 1 min and were repeated on the same sample at intervals of 1.5 min for the times indicated. An extinction coefficient of 6.22 cm^−1 mM^−1 was used to determine specific activity.
IEF purified ENOX1 was concentrated to 0.7 mg/ml by using a Centricon concentrator (Millipore Corporation, Danvers, Mass.) fitted with a 10,000 nominal molecular weight limit ultracel YM membrane. Samples (50 μl) were combined with 1 μl of trifluoroacetic acid (TFA) in the presence or absence of 15 μl 10 mM bathocuproine. After 2 h of incubation at room temperature, the samples were dialyzed (Spectra/Pro Dialysis membrane, molecular weight cut-off 6-8,000, Spectrum Laboratories (Rancho Dominguez, Calif.) against 20 mM Tris-HCl, pH 8, at 4° C. overnight.

375 NR soybeans = test: TR-III spray, greenhouse soybeans, plant height above cotyledons; type: in vivo, soybean; design: Plant height above cotyledons: unit not given beside the values; details: for Plant height above cotyledons: single experiments, 10 days after spraying
soybean plants = test: TR-III spray, greenhouse soybeans from untreated seed, epicotyl enlargement; type: in vivo
From the text: FIG. 20. As in FIG. 19, except plants were from untreated seed and sprayed with different rates of TR-III.

plasma membrane ENOX1 = test: Plasma membrane ENOX1 activity with added cysteine; type: biochemical, soybean; details: for ENOX1: +100 μM cysteine
soybean shoots = test: Shoot growth of excised soybean shoots in TR-III solutions; type: in vivo; details: narrow range, FIG. 18
From the text: FIG. 18. As in FIG. 17, except untreated seeds were germinated and excised shoots were transferred to TR-III solutions of different concentrations prepared in water.

soybeans = test: Soybean field experiment with TR-III foliar spray, standability; type: in vivo; details: 0.01 lb/A foliar spray; No TR-III plants severely lodged
From the text: FIG. 21. Pods per plant of soybeans in a field experiment comparing no TR-III (solid symbols) with 0.01 lb/A TR-III (open symbols, dashed lines) as a foliar spray applied July 3. FIG. 23. Standability of soybeans from the field experiment of FIG. 21. No TR-III plants (left) were severely lodged.

dNOX (ABP-20) [2] = molecular target: T2, dNOX (ABP-20) (Prunus persica, UniProt O04011, C44A/DUP151-151); test: NADH oxidation of dNOX (ABP-20) site-directed mutants; type: biochemical; details: versus wild type
T2 construct: made in house; host or cells: E. coli BL21 (DE3), pET11b (as for the unmodified protein; not repeated for the mutants)
Method: as §1
(§2) Amino acids indicated were replaced by alanines by site-directed mutagenesis according to Braman et al. (Braman, J., Papworth, C. and Greener, A. 1996. Methods Mol. Biol. 57:32-44). Numbered amino acids and nucleotide positions of splice variant products refer to numbers assigned to amino acids of the full length transcript

dNOX (ABP-20) [3] = test: as above; type: biochemical
Method: as §1, §2

dNOX (ABP-20) [4] = molecular target: T2, dNOX (ABP-20); test: DTDP (protein disulfide-thiol) interchange of dNOX (ABP-20) site-directed mutants; type: biochemical; details: versus wild type
Method: (§3) Protein disulfide-thiol interchange was determined spectrophotometrically from the increase in absorbance at 340 nm resulting from the cleavage of dithiodipyridine (DTDP (Morré, D. J., Gomez-Rey, M. L., Schramke, C., Em, O., Lawler, J., Hobeck, J. and Morré, D. M. 1999. Mol. Cell. Bochem. 200: 7-13). DTDP cleavage was buffered (50 mM Tris-MES, pH 7). The assay was preincubated (1 h at room temperature) with 0.5 μmoles 2,2′-dithiodipyridine (DTDP) in 5 μl of DMSO to react with endogenous reductants present with the plasma membranes. After 10 min, a further […] DTDP were added in 35 μl DMSO to start the reaction. The final reaction volume was […]. The reaction was monitored from the increase in absorbance at 340 nm. Specific activities were calculated using a milimolar absorption coefficient of 6.21.
as §2

dNOX (ABP-20) [5] = test: as above; type: biochemical
Method: as §3, §2

T2 sequence (O04011 other isoform, or with tags, fused parts or gaps C44A/DUP151-151): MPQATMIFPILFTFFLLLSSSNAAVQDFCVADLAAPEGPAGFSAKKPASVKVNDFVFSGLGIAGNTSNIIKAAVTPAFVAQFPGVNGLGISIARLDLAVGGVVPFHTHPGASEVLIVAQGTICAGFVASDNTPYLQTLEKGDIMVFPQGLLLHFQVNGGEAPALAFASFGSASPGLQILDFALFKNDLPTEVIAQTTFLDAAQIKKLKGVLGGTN

Molecule: Oc1ccc(C2=Cc3ccc(O)cc3OC2)cc1 [Phenoxodiol]
- inhibition at 10 µM (recombinant human ENOX2): > 90%

Molecule: N[C@@H](CS)C(=O)O [TR-III, cysteine]
- Stimulation of NADH oxidation [1]: specific for maximum (3)
- Plant height above cotyledons, Ave + MAD (375 NR soybeans; spray 0.001 lb/A, 0 lb/A: 13.6 ± 0.3): 14.7 ± 0.1
- Plant height above cotyledons (375 NR soybeans; spray 0.001 lb/A, 0 lb/A: 13.3, 13.9): 14.8 and 14.6
- Plant height above cotyledons, Ave + MAD (375 NR soybeans; spray 0.01 lb/A): 14.4 ± 0.1
- Plant height above cotyledons (375 NR soybeans; spray 0.01 lb/A): 14.3 and 14.5
- Plant height above cotyledons, Ave + MAD (375 NR soybeans; spray 0.1 lb/A): 15.2 ± 0.7
- Plant height above cotyledons (375 NR soybeans; spray 0.1 lb/A): 14.4 and 15.9
- Epicotyl enlargement (soybean plants; spray 0.001 or 0.1 lb/A): little or no effect
- Epicotyl enlargement (soybean plants; spray 0.01 lb/A): Epicotyl enlargement was observed
- response of plasma membrane ENOX1 activity to added cysteine (plasma membrane ENOX1; 100 μM, both ST-109-2-4 and Williams 82): about 12%
- ENOX1 (plasma membrane ENOX1; plasma membranes of Williams 82 ISU, −cysteine 0.060 ± 0.003): 0.072 ± 0.003 μmoles/min/mg protein
- ENOX1 (plasma membrane ENOX1; plasma membranes of transgenic ST-109-2-4, −cysteine 0.110 ± 0.004): 0.123 ± 0.005 μmoles/min/mg protein
- concentration range stimulating shoot growth (soybean shoots): around 10^−7 M
- Standability (lodging) (soybeans): did not lodge

B1: C44A: ABP-20 with C44 replaced by alanine (CKK motif) (protein, UniProt O04011 24-214, looked up, variant C44A)
Auxin-binding protein ABP20: AVQDFCVADLAAPEGPAGFSAKKPASVKVNDFVFSGLGIAGNTSNIIKAAVTPAFVAQFPGVNGLGISIARLDLAVGGVVPFHTHPGASEVLIVAQGTICAGFVASDNTPYLQTLEKGDIMVFPQGLLHFQVNGGEAPALAFASFGSASPGLQILDFALFKNDLPTEVIAQTTFLDAAQIKKLKGVLGGTN
- reduction of NADH oxidation activity (dNOX (ABP-20) [2]): 81%
- NADH Oxidation (dNOX (ABP-20) [3]): 0.15 ± 0.05 μmoles/min/mg protein
- reduction of protein disulfide-dithiol interchange activity (dNOX (ABP-20) [4]): 81%
- DTDP Interchange (dNOX (ABP-20) [5]): 0.02 ± 0.01 μmoles/min/mg protein
